# Results taken from PMC6006164, “Natural cyclopeptide RA-V inhibits the NF-κB signaling pathway by targeting TAK1” (Cell Death & Disease, 2018).
# Columns and labels:
# [1] = Toxicity assessment in xenograft-bearing mice; assay type: in vivo, female athymic nude BALB/c mice
# Source text: Fig. 8 Analysis of potential side effects for treatment of RA-V. a–b The change curves of body weights of BALB/c bearing HCT116 (a) or HepG2 (b) xenograft tumors (n = 8 or 7). c Representative hematoxylin–eosin staining of heart, kidney, spleen, lung, and liver from vehicle- and various concentrations of RA-V-treated group. d The evaluation of serum ALT, AST, and creatine kinase for vehicle- and various concentrations of the RA-V-treated group
# (§1) In total, 2 × 10^6 HCT116 or 3 × 10^6 HepG2 cells were subcutaneously injected into the right dorsal flank of 6- to 8-week-old female athymic nude BALB/c mice. After tumor volumes reached 100 mm^3, the tumor-bearing mice were randomly divided into several groups. The mice bearing HCT116 (n = 8) or HepG2 xenograft tumors (n = 7) were received the intravenous injection of vehicle micelles or various concentrations of RA-V micelles every other day. 5-FU (10 mg/kg) group as positive control. Body weights and tumor volumes were recorded every other day. Tumor volumes were calculated using the following formula: tumor volume (mm^3) = 0.52 × length × width^2. At the end of the experiments, the mice were killed. Tumor xenografts of each mouse were removed and weighed. Part of each tumor tissue was stored at liquid nitrogen for quantitative RT-PCR analysis. Organs (heart, kidney, spleen, lung, and liver) from killed mice were also removed, fixed in the 4% formaldehyde solution for microscopic examination by hematoxylin–eosin staining. Serum alanine transaminase(ALT), aspartate transaminase(AST), and creatine kinase(CK) were determined using relevant kits (Nanjing Jiancheng) according to the manufacturer’s specific instructions.
# [2] = test system: NF-κB signaling pathway; assay: NF-κB-dependent luciferase reporter (5×κB-luciferase/pTK-Renilla), TNF-α-induced, HeLa cells; assay type: cell-based; settings: RA-V 6 h, then 10 ng/mL TNF-α 2 h, three independent experiments
# Procedure: Fig. 1 RA-V inhibits TNF-α- and LPS-induced activation of NF-κB. a Chemical structure of RA-V. b RA-V inhibited the NF-κB signaling pathway in a dose-dependent manner. HEK293T or HeLa cells were transfected with the 5 × κB-luciferase and pTK-Renilla reporters. Twenty-four hours after transfection, the cells were incubated with various concentrations of RA-V for 6 h, and then treated with 10 ng/mL TNF-α for 2 h before the luciferase activity assay and MTT assay. c RA-V reduced TNF-α-induced expression of NF-κB target genes. HEK293T or HeLa cells were treated with various concentrations of RA-V for 24 h and stimulated with 10 ng/mL TNF-α for 2 h. The expression of the NF-κB target genes, IL-8, MCP-1, and E-selectin was measured by quantitative RT-PCR and normalized to GADPH expression. d RA-V inhibited TNF-α-induced p65 phosphorylation, IκBα phosphorylation and IκBα degradation. HEK293T or HeLa cells were incubated with various concentrations of RA-V for 24 h and treated with 10 ng/mL TNF-α for 10 min. The cell lysates were prepared and subjected to western blot analysis with the indicated antibodies. e RA-V inhibited TNF-α-induced IL-8 production. […] The expression of IL-6 was measured. h RA-V inhibited LPS-induced p65 phosphorylation, IκBα phosphorylation. […] The protein expression was measured. i RA-V inhibited LPS-induced IL-6 production. […] The expression of IL-6 was measured. […]
# [3] = test system: HCT116 xenograft tumors; assay: HCT116 xenograft in nude mice; assay type: in vivo, female athymic nude BALB/c mice
# Procedure: Fig. 7 RA-V inhibits tumor growth and the expression of NF-κB target genes in a nude xenograft model. a–d Inhibition of the growth of HCT116 and HepG2 xenograft tumors by RA-V. Female athymic nude BALB/c mice bearing HCT116 (n = 8) or HepG2 (n = 7) xenograft tumors were intravenously injected with various concentrations of RA-V micelles or control micelles every other day. 5-FU (10 mg/kg) group as positive control. Effects of RA-V on the growth curves of subcutaneoue xenografts of HCT116 (a) and HepG2 (b) and effects on the tumor weight in the HCT116 (c) and HepG2 (d) models. e–f Tumors removed were photographed. g–h The expression of the NF-κB target genes, IL-8, MCP-1, and CXCL-1, in HCT116 (g) and HepG2 (h) tumor tissue from vehicle- and various concentrations of RA-V-treated group was determined by quantitative RT-PCR and normalized to GADPH expression. *, p < 0.05; **, p < 0.01; ***, p < 0.001
# as §1, with “Organs (heart, kidney, spleen, lung, and liver) from killed mice were also removed, fixed in the 4% formaldehyde solution for microscopic examination by hematoxylin–eosin staining.” left out
# [4] = HCT116, n = 8, RA-V micelles i.v. every other day, vs control
substance,measurement,setting,value
RA-V,body weight,"[1]; HCT116 or HepG2 xenograft mice, measured every other day, vs control",no obvious changes
same,"toxic pathological changes in heart, kidney, spleen, lung and liver","[1]; hematoxylin–eosin staining, vs control",no obvious toxic pathological changes
same,"levels of serum ALT, AST and creatine kinase","[1]; liver and heart toxicity, vs vehicle",no significant changes
same,IC50,[2],171 nM
same,tumor growth rate (tumor volume),[3]; [4],significantly reduced
same,tumor weight,[3]; [4],obviously lower
same,"expression of IL-8, MCP-1, and CXCL-1 in tumor tissue","[3]; HCT116 xenograft, quantitative RT-PCR",remarkable decreased
